The results in this text go back to ChEMBL document CHEMBL1129086, “Design of a novel cognitive enhancer (8S, 10aS)-8-carbamoyl-1,2,3,6,7,8,9,10a-octahydro-5H,10H-pyrrolo[1,2-a][1,4]diazocin-5,10-dione” (1996).

The source made the active and inactive calls. No cut-off for these calls is given here. Where a SMILES comes first, the peptide text is derived from it. Bridges are numbered along the chain shown (N, C = ends). [ ]: non-standard residue; d: D form. pGlu = O=C1CC[C@@H](C(=O)O)N1

Assay [1] is filed under the species Mus musculus. Nature of the assay: Compound was tested for myorelaxant action in mice by neuropharmacological test; No effect. Type of assay: functional, organism-based.
The species entered for assay [2] is Mus musculus. The assay can be described thus: Compound was tested for sedative action in mice by neuropharmacological test; No effect. Type of assay: functional, organism-based.
For assay [3], the species on record is Mus musculus. The assay can be described thus: Compound was tested for psychomotor activation on CNS in mice by neuropharmacological test; No effect. Particulars: Central nervous system. The assay is classed as functional, organism-based.
Assay [4] is filed under the species Mus musculus. The assay can be described thus: Compound was tested for motor impairment in mice by neuropharmacological test; No effect. The assay is classed as functional, organism-based.
The subject of assay [5] is Rattus norvegicus. Nature of the assay: Antiamnesic potency was discovered in the passive avoidance test in rats at a dose 0.1 mg/kg (p<0.05); Amnesia reversed. Type of assay: functional, organism-based. Further details: dose 0.1 mg/kg.
Assay [6] relates to Rattus norvegicus. Nature of the assay: Antiamnesic potency was discovered in the passive avoidance test in rats at a dose 1.0 mg/kg (p<0.05); Amnesia reversed. Type of assay: functional, organism-based. Further details: dose 1 mg/kg.
In assay [7] the test system is Rattus norvegicus. Nature of the assay: Compound was tested for amnesia response against scopolamine induced rats by passive avoidance test at a dose 1 mg/kg. Type of assay: functional.

Turning to `O=C(COC(=O)[C@@H]1CCC(=O)N2CCC[C@H]2C(=O)N1)NC(c1ccccc1)c1ccccc1`, the outcome in the assay filed under Mus musculus [1], in the assay filed under Mus musculus [2], in the assay filed under Mus musculus [3] and in the assay listed under Mus musculus [4] was inactive.

As for `CC(C)(C)OC(=O)N[C@@H](CCC(=O)N1CCC[C@H]1C(=O)O)C(=O)OCC(=O)NC(c1ccccc1)c1ccccc1`, the result in the assay listed under Mus musculus [1], in the assay listed under Mus musculus [2], in the assay listed under Mus musculus [3] and in the assay filed under Mus musculus [4] was inactive.

With `CC(C)(C)OC(=O)N[C@@H](CCC(=O)O)C(=O)O`, the result in the assay listed under Mus musculus [1], in the assay filed under Mus musculus [2], in the assay listed under Mus musculus [3] and in the assay filed under Mus musculus [4] was inactive.

Turning to `NC(=O)[C@@H]1CCC(=O)N2CCC[C@H]2C(=O)N1` (Pro-Glu-NH2; lactam N-2), the outcome in the assay listed under Mus musculus [1], in the assay listed under Mus musculus [2], in the assay listed under Mus musculus [3] and in the assay listed under Mus musculus [4] was inactive. For the same compound, the Activity entry in the assay on Rattus norvegicus [5] and in the assay with Rattus norvegicus [6] was “Amnesia reversed” in each case. This compound also returned a Response in the assay with Rattus norvegicus [7] of 83%.

`CC(C)(C)OC(=O)N[C@@H](CCC(=O)O)C(=O)OCC(=O)NC(c1ccccc1)c1ccccc1`: the result in the assay filed under Mus musculus [1], in the assay listed under Mus musculus [2], in the assay filed under Mus musculus [3] and in the assay filed under Mus musculus [4] was inactive.

As to `NC(=O)CC[C@H](NC(=O)[C@@H]1CCC(=O)N1)C(=O)N1CCC[C@H]1C(N)=O` ([pGlu]-Gln-Pro-NH2), the result in the assay listed under Mus musculus [1], in the assay filed under Mus musculus [2], in the assay filed under Mus musculus [3] and in the assay filed under Mus musculus [4] was inactive.

Take `NC(=O)[C@@H]1CCCN1C(=O)[C@H](Cc1c[nH]cn1)NC(=O)[C@@H]1CCC(=O)N1`: the outcome in the assay filed under Mus musculus [1], in the assay filed under Mus musculus [2], in the assay filed under Mus musculus [3] and in the assay filed under Mus musculus [4] was inactive.
